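Step 1: Grow cells in 96-well plates. Step 2: Expose to compound for 48 hours at 5 concentrations. Step 3: Interpolate endpoints linearly; if unreached, use highest concentration. GI50: concentration for 50% inhibition of growth. TGI is the concentration that stops growth completely.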
Legend:
Assay in all cases: DTP human tumour cell line panel, 48 h
[1] = test system: 786-0 renal
[2] = test system: A498 renal
[3] = test system: A549 NSCLC
[4] = test system: ACHN renal
[5] = test system: BT-549 breast
[6] = test system: CAKI-1 renal
[7] = test system: CCRF-CEM leukemia
[8] = test system: COLO 205 colon
[9] = test system: DU-145 prostate
[10] = test system: EKVX NSCLC
[11] = test system: HCC-2998 colon
[12] = test system: HCT-116 colon
[13] = test system: HCT-15 colon
[14] = test system: HL-60(TB) leukemia
[15] = test system: HOP-62 NSCLC
[16] = test system: HOP-92 NSCLC
[17] = test system: HS 578T breast
[18] = test system: HT29 colon
[19] = test system: IGROV1 ovarian
[20] = test system: K-562 leukemia
[21] = test system: KM12 colon
[22] = test system: LOX IMVI melanoma
[23] = test system: M14 melanoma
[24] = test system: MCF7 breast
[25] = test system: MDA-MB-231 breast
[26] = test system: MDA-MB-435
[27] = test system: MOLT-4 leukemia
[28] = test system: NCI-H226 lung
[29] = test system: NCI-H23 lung
[30] = test system: NCI-H460 lung
[31] = test system: NCI-H522 lung
[32] = test system: NCI/ADR-RES ovarian
[33] = test system: OVCAR-3 ovarian
[34] = test system: OVCAR-4 ovarian
[35] = test system: OVCAR-5 ovarian
[36] = test system: OVCAR-8 ovarian
[37] = test system: PC-3 prostate
[38] = test system: RPMI-8226 leukemia
[39] = test system: RXF 393 renal
[40] = test system: SF-268 CNS
[41] = test system: SF-295 CNS
[42] = test system: SF-539 CNS
[43] = test system: SK-MEL-2 melanoma
[44] = test system: SK-MEL-28 melanoma
[45] = test system: SK-MEL-5 melanoma
[46] = test system: SK-OV-3 ovarian
[47] = test system: SN12C renal
[48] = test system: SNB-19 CNS
[49] = test system: SW-620 colon
[50] = test system: T-47D breast
[51] = test system: TK-10 renal
[52] = test system: U251 CNS
[53] = test system: UACC-257 melanoma
[54] = test system: UACC-62 melanoma
[55] = test system: UO-31 renal

## C/C1=C\CC[C@@]2(C)O[C@@H]2[C@H]2OC(=O)[C@@H](CN(C)C)[C@@H]2CC1
[1]
  GI50: 7.61 µM
  TGI: 24 µM
[2]
  GI50: 25.7 µM
  TGI: 44.9 µM
[3]
  GI50: 19.6 µM
  TGI: 63.3 µM
[4]
  GI50: 15.6 µM
  TGI: 31.6 µM
[5]
  GI50: 4.8 µM
  TGI: 26.9 µM
[6]
  GI50: 13.2 µM
  TGI: 31.3 µM
[7]
  GI50: 2.11 µM
  TGI: 5.61 µM
[8]
  GI50: 33.8 µM
  TGI: 98.4 µM
[9]
  GI50: 4.75 µM
  TGI: 28.1 µM
[10]
  GI50: 21.1 µM
  TGI: 41.8 µM
[11]
  GI50: 18 µM
  TGI: 35.7 µM
[12]
  GI50: 4.97 µM
  TGI: 20.4 µM
[13]
  GI50: 15.9 µM
  TGI: 34.3 µM
[14]
  GI50: 1.46 µM
  TGI: 7.24 µM
[15]
  GI50: 20.9 µM
  TGI: 40.4 µM
[16]
  GI50: 9.87 µM
  TGI: 29.7 µM
[17]
  GI50: 22.7 µM
  TGI: > 100 µM
[18]
  GI50: 19.9 µM
  TGI: 61.4 µM
[19]
  GI50: 17.9 µM
  TGI: 34.2 µM
[20]
  GI50: 2.54 µM
  TGI: 59.1 µM
[21]
  GI50: 11.8 µM
  TGI: 29.1 µM
[22]
  GI50: 10.2 µM
  TGI: 29.9 µM
[23]
  GI50: 16.3 µM
  TGI: 35.2 µM
[24]
  GI50: 4.96 µM
  TGI: > 100 µM
[25]
  GI50: 14.2 µM
  TGI: 34.6 µM
[26]
  GI50: 7.68 µM
  TGI: 25.3 µM
[27]
  GI50: 2.89 µM
  TGI: 9.82 µM
[28]
  GI50: 20.4 µM
  TGI: 40.6 µM
[29]
  GI50: 19.2 µM
  TGI: 40 µM
[30]
  GI50: 32.8 µM
  TGI: > 100 µM
[31]
  GI50: 2.65 µM
  TGI: 7.06 µM
[32]
  GI50: 14.7 µM
  TGI: 59.9 µM
[33]
  GI50: 12.1 µM
  TGI: 32.4 µM
[34]
  GI50: 16.6 µM
  TGI: 40 µM
[35]
  GI50: 18.6 µM
  TGI: 37.1 µM
[36]
  GI50: 23.2 µM
  TGI: 52.8 µM
[37]
  GI50: 14.1 µM
  TGI: 33.7 µM
[38]
  GI50: 2.39 µM
  TGI: 23.1 µM
[39]
  GI50: 16.1 µM
  TGI: 50.5 µM
[40]
  GI50: 38.7 µM
  TGI: > 100 µM
[41]
  GI50: 32.8 µM
  TGI: > 100 µM
[42]
  GI50: 2.45 µM
  TGI: 5.62 µM
[43]
  GI50: 14.2 µM
  TGI: 34.8 µM
[44]
  GI50: 21.9 µM
  TGI: 51.6 µM
[45]
  GI50: 8.14 µM
  TGI: 29.7 µM
[46]
  GI50: 27.6 µM
  TGI: 54 µM
[47]
  GI50: 12.8 µM
  TGI: 32.4 µM
[48]
  GI50: 27.9 µM
  TGI: 63 µM
[49]
  GI50: 3.76 µM
  TGI: > 100 µM
[50]
  GI50: 39.4 µM
  TGI: > 100 µM
[51]
  GI50: 3.09 µM
  TGI: 7.7 µM
[52]
  GI50: 14.9 µM
  TGI: 34.4 µM
[53]
  GI50: 12.8 µM
  TGI: 28.4 µM
[54]
  GI50: 17.7 µM
  TGI: 34.9 µM
[55]
  GI50: 2.31 µM
  TGI: 5.95 µM

Source: PubChem BioAssay (NCI)
